Assay results from ChEMBL document CHEMBL3352227, “Synthesis, antimycobacterial and antibacterial evaluation of l-[(1R, 2S)-2-fluorocyclopropyl]fluoroquinolone derivatives containing an oxime functional moiety” (Eur J Med Chem, 2014).
≈ marks a conversion by molar mass, not a printed value.

Columns and labels:
Assay type in all cases: functional
[1] = system: Mycobacterium tuberculosis; test: Antimycobacterial activity against Mycobacterium tuberculosis H37Rv ATCC 27294 by MABA method
Escherichia coli [2] = test: Antibacterial activity against Escherichia coli ATCC 25922 after 18 to 24 hrs by standard twofold serial dilution method
Escherichia coli [3] = test: Antibacterial activity against Escherichia coli 12-1 after 18 to 24 hrs by standard twofold serial dilution method
Escherichia coli [4] = test: Antibacterial activity against extended-spectrum beta-lactamase producing Escherichia coli 12-2 after 18 to 24 hrs by standard twofold serial dilution method
Escherichia coli [5] = test: Antibacterial activity against extended-spectrum beta-lactamase producing Escherichia coli 12-3 after 18 to 24 hrs by standard twofold serial dilution method
Escherichia coli [6] = test: Antibacterial activity against extended-spectrum beta-lactamase producing Escherichia coli 12-14 after 18 to 24 hrs by standard twofold serial dilution method
Escherichia coli [7] = test: Antibacterial activity against extended-spectrum beta-lactamase producing Escherichia coli 12-15 after 18 to 24 hrs by standard twofold serial dilution method
Klebsiella pneumoniae [8] = test: Antibacterial activity against Klebsiella pneumoniae 12-1 after 18 to 24 hrs by standard twofold serial dilution method
Klebsiella pneumoniae [9] = test: Antibacterial activity against Klebsiella pneumoniae 12-2 after 18 to 24 hrs by standard twofold serial dilution method
Klebsiella pneumoniae [10] = test: Antibacterial activity against Klebsiella pneumoniae 12-4 after 18 to 24 hrs by standard twofold serial dilution method
Klebsiella pneumoniae [11] = test: Antibacterial activity against extended-spectrum beta-lactamase producin Klebsiella pneumoniae 12-3 after 18 to 24 hrs by standard twofold serial dilution method
Klebsiella pneumoniae [12] = test: Antibacterial activity against extended-spectrum beta-lactamase producin Klebsiella pneumoniae 12-4 after 18 to 24 hrs by standard twofold serial dilution method
Klebsiella pneumoniae [13] = test: Antibacterial activity against extended-spectrum beta-lactamase producin Klebsiella pneumoniae 12-7 after 18 to 24 hrs by standard twofold serial dilution method
Klebsiella pneumoniae [14] = test: Antibacterial activity against extended-spectrum beta-lactamase producin Klebsiella pneumoniae 12-14 after 18 to 24 hrs by standard twofold serial dilution method
Pseudomonas aeruginosa [15] = test: Antibacterial activity against Pseudomonas aeruginosa 12-12 after 18 to 24 hrs by standard twofold serial dilution method
Pseudomonas aeruginosa [16] = test: Antibacterial activity against Pseudomonas aeruginosa 12-14 after 18 to 24 hrs by standard twofold serial dilution method
Staphylococcus aureus [17] = test: Antibacterial activity against Staphylococcus aureus ATCC 25923 after 18 to 24 hrs by standard twofold serial dilution method
Staphylococcus aureus [18] = test: Antibacterial activity against methicillin-sensitive Staphylococcus aureus 12-1 after 18 to 24 hrs by standard twofold serial dilution method
Staphylococcus aureus [19] = test: Antibacterial activity against methicillin-sensitive Staphylococcus aureus 12-2 after 18 to 24 hrs by standard twofold serial dilution method
Staphylococcus aureus [20] = test: Antibacterial activity against methicillin-sensitive Staphylococcus aureus 12-4 after 18 to 24 hrs by standard twofold serial dilution method
Staphylococcus aureus [21] = test: Antibacterial activity against methicillin-sensitive Staphylococcus aureus 12-5 after 18 to 24 hrs by standard twofold serial dilution method
Staphylococcus aureus [22] = test: Antibacterial activity against methicillin-resistant Staphylococcus aureus 12-2 after 18 to 24 hrs by standard twofold serial dilution method
Staphylococcus aureus [23] = test: Antibacterial activity against methicillin-resistant Staphylococcus aureus 12-4 after 18 to 24 hrs by standard twofold serial dilution method
Staphylococcus aureus [24] = test: Antibacterial activity against methicillin-resistant Staphylococcus aureus 12-5 after 18 to 24 hrs by standard twofold serial dilution method
[25] = system: Staphylococcus epidermidis; test: Antibacterial activity against methicillin-sensitive Staphylococcus epidermidis 12-1 after 18 to 24 hrs by standard twofold serial dilution method
[26] = system: Staphylococcus epidermidis; test: Antibacterial activity against methicillin-sensitive Staphylococcus epidermidis 12-3 after 18 to 24 hrs by standard twofold serial dilution method
[27] = system: Staphylococcus epidermidis; test: Antibacterial activity against methicillin-sensitive Staphylococcus epidermidis 12-6 after 18 to 24 hrs by standard twofold serial dilution method
[28] = system: Staphylococcus epidermidis; test: Antibacterial activity against methicillin-sensitive Staphylococcus epidermidis 12-8 after 18 to 24 hrs by standard twofold serial dilution method
[29] = system: Staphylococcus epidermidis; test: Antibacterial activity against methicillin-resistant Staphylococcus epidermidis 12-1 after 18 to 24 hrs by standard twofold serial dilution method
[30] = system: Staphylococcus epidermidis; test: Antibacterial activity against methicillin-resistant Staphylococcus epidermidis 12-6 after 18 to 24 hrs by standard twofold serial dilution method
Streptococcus pneumoniae [31] = test: Antibacterial activity against Streptococcus pneumoniae ATCC 49619 after 18 to 24 hrs by standard twofold serial dilution method
Streptococcus pneumoniae [32] = test: Antibacterial activity against Streptococcus pneumoniae 12-18 after 18 to 24 hrs by standard twofold serial dilution method

| SMILES | MIC [1] [µg/mL] | MIC (Escherichia coli [2]) [µg/mL] | MIC (Escherichia coli [3]) [µg/mL] | MIC (Escherichia coli [4]) [µg/mL] | MIC (Escherichia coli [5]) [µg/mL] | MIC (Escherichia coli [6]) [µg/mL] | MIC (Escherichia coli [7]) [µg/mL] | MIC (Klebsiella pneumoniae [8]) [µg/mL] | MIC (Klebsiella pneumoniae [9]) [µg/mL] | MIC (Klebsiella pneumoniae [10]) [µg/mL] | MIC (Klebsiella pneumoniae [11]) [µg/mL] | MIC (Klebsiella pneumoniae [12]) [µg/mL] | MIC (Klebsiella pneumoniae [13]) [µg/mL] | MIC (Klebsiella pneumoniae [14]) [µg/mL] | MIC (Pseudomonas aeruginosa [15]) [µg/mL] | MIC (Pseudomonas aeruginosa [16]) [µg/mL] | MIC (Staphylococcus aureus [17]) [µg/mL] | MIC (Staphylococcus aureus [18]) [µg/mL] | MIC (Staphylococcus aureus [19]) [µg/mL] | MIC (Staphylococcus aureus [20]) [µg/mL] | also measured |
| --- | --- | --- | --- | --- | --- | --- | --- | --- | --- | --- | --- | --- | --- | --- | --- | --- | --- | --- | --- | --- | --- |
| CO/N=C1/CN(c2nc3c(cc2F)c(=O)c(C(=O)O)cn3[C@@H]2C[C@@H]2F)[C@H]1CN | 1 (≈ 2.54 µM) | 0.06 (≈ 0.153 µM) | 1 (≈ 2.54 µM) | 128 (≈ 325 µM) | 16 (≈ 40.7 µM) | 128 (≈ 325 µM) | > 128 | 0.25 (≈ 0.636 µM) | 0.25 (≈ 0.636 µM) | 0.25 (≈ 0.636 µM) | 64 (≈ 163 µM) | 8 (≈ 20.3 µM) | 2 (≈ 5.08 µM) | 128 (≈ 325 µM) | 2 (≈ 5.08 µM) | 32 (≈ 81.4 µM) | 0.125 (≈ 0.318 µM) | 0.06 (≈ 0.153 µM) | 0.06 (≈ 0.153 µM) | 0.03 (≈ 0.0763 µM) | MIC (Staphylococcus aureus [21]): 0.06 µg/mL (≈ 0.153 µM); MIC (Staphylococcus aureus [22]): 32 µg/mL (≈ 81.4 µM); MIC (Staphylococcus aureus [23]): 32 µg/mL (≈ 81.4 µM); MIC (Staphylococcus aureus [24]): 32 µg/mL (≈ 81.4 µM); MIC [25]: 0.06 µg/mL (≈ 0.153 µM); MIC [26]: 0.5 µg/mL (≈ 1.27 µM); MIC [27]: 0.06 µg/mL (≈ 0.153 µM); MIC [28]: 2 µg/mL (≈ 5.08 µM); MIC [29]: 4 µg/mL (≈ 10.2 µM); MIC [30]: 4 µg/mL (≈ 10.2 µM); MIC (Streptococcus pneumoniae [31]): 0.5 µg/mL (≈ 1.27 µM); MIC (Streptococcus pneumoniae [32]): 2 µg/mL (≈ 5.08 µM) |
| CCO/N=C1/CN(c2nc3c(cc2F)c(=O)c(C(=O)O)cn3[C@@H]2C[C@@H]2F)[C@H]1CN | 1 (≈ 2.45 µM) | 0.125 (≈ 0.307 µM) | 2 (≈ 4.91 µM) | > 128 | 16 (≈ 39.3 µM) | 128 (≈ 314 µM) | > 128 | 0.5 (≈ 1.23 µM) | 0.5 (≈ 1.23 µM) | 0.25 (≈ 0.614 µM) | 128 (≈ 314 µM) | 8 (≈ 19.6 µM) | 4 (≈ 9.82 µM) | 64 (≈ 157 µM) | 1 (≈ 2.45 µM) | 32 (≈ 78.6 µM) | 0.5 (≈ 1.23 µM) | 0.5 (≈ 1.23 µM) | 0.25 (≈ 0.614 µM) | 0.25 (≈ 0.614 µM) | MIC (Staphylococcus aureus [21]): 0.5 µg/mL (≈ 1.23 µM); MIC (Staphylococcus aureus [22]): 64 µg/mL (≈ 157 µM); MIC (Staphylococcus aureus [23]): 64 µg/mL (≈ 157 µM); MIC (Staphylococcus aureus [24]): 64 µg/mL (≈ 157 µM); MIC [25]: 0.5 µg/mL (≈ 1.23 µM); MIC [26]: 1 µg/mL (≈ 2.45 µM); MIC [27]: 0.25 µg/mL (≈ 0.614 µM); MIC [28]: 16 µg/mL (≈ 39.3 µM); MIC [29]: 16 µg/mL (≈ 39.3 µM); MIC [30]: 16 µg/mL (≈ 39.3 µM); MIC (Streptococcus pneumoniae [31]): 0.5 µg/mL (≈ 1.23 µM); MIC (Streptococcus pneumoniae [32]): 4 µg/mL (≈ 9.82 µM) |
| NC[C@H]1/C(=N\OCc2ccccc2)CN1c1nc2c(cc1F)c(=O)c(C(=O)O)cn2[C@@H]1C[C@@H]1F | 2 (≈ 4.26 µM) | 0.125 (≈ 0.266 µM) | 0.25 (≈ 0.533 µM) | > 128 | 32 (≈ 68.2 µM) | > 128 | > 128 | 0.5 (≈ 1.07 µM) | 1 (≈ 2.13 µM) | 1 (≈ 2.13 µM) | > 128 | 16 (≈ 34.1 µM) | 4 (≈ 8.52 µM) | > 128 | 4 (≈ 8.52 µM) | 64 (≈ 136 µM) | 0.125 (≈ 0.266 µM) | 0.25 (≈ 0.533 µM) | 0.25 (≈ 0.533 µM) | 0.125 (≈ 0.266 µM) | MIC (Staphylococcus aureus [21]): 0.25 µg/mL (≈ 0.533 µM); MIC (Staphylococcus aureus [22]): 64 µg/mL (≈ 136 µM); MIC (Staphylococcus aureus [23]): 32 µg/mL (≈ 68.2 µM); MIC (Staphylococcus aureus [24]): 32 µg/mL (≈ 68.2 µM); MIC [25]: 0.25 µg/mL (≈ 0.533 µM); MIC [26]: 0.5 µg/mL (≈ 1.07 µM); MIC [27]: 0.25 µg/mL (≈ 0.533 µM); MIC [28]: 8 µg/mL (≈ 17 µM); MIC [29]: 16 µg/mL (≈ 34.1 µM); MIC [30]: 8 µg/mL (≈ 17 µM); MIC (Streptococcus pneumoniae [31]): 0.5 µg/mL (≈ 1.07 µM); MIC (Streptococcus pneumoniae [32]): 4 µg/mL (≈ 8.52 µM) |
